For orientation: Km means the substrate concentration at which the rate is half of its maximum.

This experiment concerns T1, glucose dehydrogenase (GDH) from Pseudomonas sp.
T1 construct: commercial enzyme, Sigma-Aldrich (UK)
Description: steady-state kinetics, Michaelis-Menten fit. It is filed as biochemical. The note with it: pH 5.0, 30 °C; NAD+ as co-substrate; read-out: apparent Km.

Consider `OC[C@H]1OC(O)[C@H](O)[C@@H](O)[C@@H]1O` (stereo partly shown) [glucose], for which the Km turned out to be 3.6 ± 0.35 mM.

Values taken from article PMC8053192, “Engineering of a borneol dehydrogenase from P. putida for the enzymatic resolution of camphor” (Applied Microbiology and Biotechnology, 2021).
